Values of other authors in patent US9072700B2, “Methods of using derivatives of (−)-venlafaxine” (Sunovion Pharmaceuticals Inc., priority 1998, dated 2015).

Experiments:
[1] = system: norepinephrine synaptosomal uptake; settings: Howell et al. 1994
dopamine uptake = settings: in vitro; Muth et al. 1991
[2] = Klamerus et al. 1992
norepinephrine uptake = settings: in vitro; Muth et al. 1991
serotonin uptake = settings: Howell et al. 1994

COc1ccc([C@H](CN(C)C)C2(O)CCCCC2)cc1 [(−) enantiomer]
inhibition of norepinephrine synaptosomal uptake, enantiomer comparison [1]: more potent inhibitor

CN(C)CC(c1ccc(O)cc1)C1(O)CCCCC1 (racemic) [O-desmethylvenlafaxine, (±)-1-[2-(dimethylamino)-1-(4-phenol)ethyl]cyclohexanol]
inhibition of dopamine uptake compared with racemic venlafaxine (dopamine uptake): more potent inhibitor
half-life (t½) [2]: about 10 hours
half-life relative to that of venlafaxine ([2]; ratio to venlafaxine half-life): approximately 2.5 times
inhibition of norepinephrine uptake compared with racemic venlafaxine (norepinephrine uptake): more potent inhibitor

COc1ccc(C(CN(C)C)C2(O)CCCCC2)cc1 (single isomer, unassigned; (+)) [(+) enantiomer]
selectivity in inhibiting serotonin uptake, enantiomer comparison (serotonin uptake): more selective
